Measurements taken from ChEMBL document CHEMBL4406824, “Phenolic N-monosubstituted carbamates: Antitubercular and toxicity evaluation of multi-targeting compounds” (Eur J Med Chem, 2019).
In brackets after ≈: the same amount, converted by molar mass.

Experiments:
Mycobacterium kansasii [1] = test: Antimycobacterial activity against Mycobacterium kansasii 6509/96 after 21 days; format: functional; conditions: 6509/96, 504 h
[2] = test system: Mycobacterium tuberculosis; format: functional; conditions: H37Rv 331/88, 336 h
Mycobacterium kansasii [3] = test: Potency index, ratio of p-aminosalicylic acid MIC to compound MIC for antimycobacterial activity against Mycobacterium kansasii 235/80; format: functional
[4] = test system: Mycobacterium tuberculosis H37Rv; test: Inhibition of recombinant Mycobacterium tuberculosis H37Rv ICL1 expressed in Escherichia coli BL21 (DE3) cells at 10 uM using (+)-potassium Ds-threo-isocitrate as substrate by glyoxylate phenyl hydrazone formation assay relative to control
Mycobacterium kansasii [5] = test: Antimycobacterial activity against Mycobacterium kansasii 6509/96 after 7 days; format: functional; conditions: 6509/96, 168 h
Mycobacterium kansasii [6] = test: Potency index, ratio of p-aminosalicylic acid MIC to compound MIC for antimycobacterial activity against Mycobacterium kansasii 6509/96; format: functional
Mycobacterium avium [7] = test: Antimycobacterial activity against Mycobacterium avium 330/88 after 14 days; format: functional; conditions: 330/88, 336 h
Mycobacterium kansasii [8] = test: Antimycobacterial activity against Mycobacterium kansasii 235/80 after 14 days; format: functional; conditions: 235/80, 336 h
[9] = test system: Mycobacterium tuberculosis; format: functional; conditions: H37Rv 331/88, 504 h
in vitro = conditions: human, HepG2 cells
Description: Selectivity index, ratio of IC50 for human HepG2 cells to MIC for antimycobacterial activity against Mycobacterium tuberculosis H37Rv

Mycobacterium kansasii [10] = test: Antimycobacterial activity against Mycobacterium kansasii 6509/96 after 14 days; format: functional; conditions: 6509/96, 336 h
Mycobacterium kansasii [11] = test: Antimycobacterial activity against Mycobacterium kansasii 235/80 after 21 days; format: functional; conditions: 235/80, 504 h
HepG2 [12] = test: Cytostatic activity against human HepG2 cells preincubated for overnight in serum free medium followed by compound wash out and further incubated for 72 hrs in presence of serum by MTT assay; format: ADME, cell-based
Mycobacterium kansasii [13] = test: Antimycobacterial activity against Mycobacterium kansasii 235/80 after 7 days; format: functional; conditions: 235/80, 168 h
[14] = test system: Mycobacterium tuberculosis; format: functional, H37Rv 331/88; parameters: reference not given here
Mycolicibacterium aurum = test: Antimycobacterial activity against Mycobacterium aurum DSM 43999 after 72 hr by resazurin dye based microdilution method; format: functional; conditions: DSM 43999, 72 h
Mycobacterium avium [15] = test: Antimycobacterial activity against Mycobacterium avium 330/88 after 21 days; format: functional; conditions: 330/88, 504 h
HepG2 [16] = test: Cytotoxicity against human HepG2 cells assessed as reduction in cell viability after overnight incubation by MTT assay; format: cell-based
[17] = test system: Mycobacterium tuberculosis; test: Antimycobacterial activity against Mycobacterium tuberculosis H37Ra ITM-M006710 after 48 hr by resazurin dye based microdilution method; format: functional; conditions: H37Ra ITM-M006710, 48 h
[18] = test system: Mycolicibacterium smegmatis; test: Antimycobacterial activity against Mycobacterium smegmatis DSM 43465 after 120 hr by resazurin dye based microdilution method; format: functional; conditions: DSM 43465, 120 h

SMILES | MIC (Mycobacterium kansasii [1]) [µM] | MIC [2] [µM] | Ratio (Mycobacterium kansasii [3]) | inhibition [4] [%] | MIC (Mycobacterium kansasii [5]) [µM] | Ratio (Mycobacterium kansasii [6]) | MIC (Mycobacterium avium [7]) [µM] | MIC (Mycobacterium kansasii [8]) [µM] | MIC [9] [µM] | selectivity ratio (in vitro) | MIC (Mycobacterium kansasii [10]) [µM] | MIC (Mycobacterium kansasii [11]) [µM] | IC50 (HepG2 [12]) [µM] | MIC (Mycobacterium kansasii [13]) [µM] | Ratio [14] | MIC (Mycolicibacterium aurum) [µg/mL] | MIC (Mycobacterium avium [15]) [µM] | IC50 (HepG2 [16]) [µM] | MIC [17] [µg/mL] | MIC [18] [µg/mL]
O=C(Nc1ccccc1)Oc1ccc(Cl)cc1C(=O)Nc1ccc(Cl)cc1 | 16 (≈ 6.42 µg/mL) | 16 (≈ 6.42 µg/mL) | >250 | 10 | 8 (≈ 3.21 µg/mL) | >250 | 16 (≈ 6.42 µg/mL) | 32 (≈ 12.8 µg/mL) | 16 (≈ 6.42 µg/mL) | > 15.6 | 16 (≈ 6.42 µg/mL) | 32 (≈ 12.8 µg/mL) | 0.9 | 16 (≈ 6.42 µg/mL) | >125 | 1.56 (≈ 3.89 µM) | 16 (≈ 6.42 µg/mL) | > 250 | 1.56 (≈ 3.89 µM) | 1.56 (≈ 3.89 µM)
O=C(NCCc1ccccc1)Oc1ccccc1C(=O)Nc1ccccc1 | 250 (≈ 90.1 µg/mL) | 125 (≈ 45.1 µg/mL) |  | 6 | 125 (≈ 45.1 µg/mL) |  | 125 (≈ 45.1 µg/mL) | 250 (≈ 90.1 µg/mL) | 125 (≈ 45.1 µg/mL) | > 1 | 250 (≈ 90.1 µg/mL) | 250 (≈ 90.1 µg/mL) | 55.6 | 125 (≈ 45.1 µg/mL) |  | 31.2 (≈ 86.7 µM) | 125 (≈ 45.1 µg/mL) | > 125 | 15.6 (≈ 43.3 µM) | 31.2 (≈ 86.7 µM)
O=C(NCc1ccccc1)Oc1ccccc1C(=O)Nc1ccccc1 | 250 (≈ 86.6 µg/mL) | 125 (≈ 43.3 µg/mL) |  | 8 | 125 (≈ 43.3 µg/mL) |  | 125 (≈ 43.3 µg/mL) | 250 (≈ 86.6 µg/mL) | 125 (≈ 43.3 µg/mL) | > 1 | 250 (≈ 86.6 µg/mL) | 250 (≈ 86.6 µg/mL) | 54.3 | 125 (≈ 43.3 µg/mL) |  | 31.2 (≈ 90.2 µM) | 125 (≈ 43.3 µg/mL) | > 125 | 15.6 (≈ 45.1 µM) | 31.2 (≈ 90.2 µM)
O=C(NC12CC3CC(CC(C3)C1)C2)Oc1ccc(Cl)cc1 | 125 (≈ 38.2 µg/mL) | 62.5 (≈ 19.1 µg/mL) |  | 13 | 125 (≈ 38.2 µg/mL) |  | 125 (≈ 38.2 µg/mL) | 125 (≈ 38.2 µg/mL) | 125 (≈ 38.2 µg/mL) | > 1 | 125 (≈ 38.2 µg/mL) | 125 (≈ 38.2 µg/mL) | > 250 | 125 (≈ 38.2 µg/mL) |  | ≥ 125 | 250 (≈ 76.5 µg/mL) | > 125 | 62.5 (≈ 204 µM) | ≥ 125
O=C(Nc1ccccc1)Oc1ccc(Cl)cc1 | 500 (≈ 124 µg/mL) | 250 (≈ 61.9 µg/mL) |  | 14 | 125 (≈ 31 µg/mL) |  | 500 (≈ 124 µg/mL) | 250 (≈ 61.9 µg/mL) | 500 (≈ 124 µg/mL) | > 0.3 | 250 (≈ 61.9 µg/mL) | 500 (≈ 124 µg/mL) | > 125 | 125 (≈ 31 µg/mL) |  | 15.6 (≈ 63.1 µM) | 1000 (≈ 248 µg/mL) | > 125 | 7.81 (≈ 31.5 µM) | 15.6 (≈ 63.1 µM)
O=C(NC12CC3CC(CC(C3)C1)C2)Oc1ccccc1C(=O)Nc1ccccc1 | 250 (≈ 97.6 µg/mL) | 125 (≈ 48.8 µg/mL) |  | 9 | 125 (≈ 48.8 µg/mL) |  | 125 (≈ 48.8 µg/mL) | 125 (≈ 48.8 µg/mL) | 125 (≈ 48.8 µg/mL) | > 2 | 250 (≈ 97.6 µg/mL) | 125 (≈ 48.8 µg/mL) | 233 | 125 (≈ 48.8 µg/mL) |  | ≥ 250 | 125 (≈ 48.8 µg/mL) | > 250 | 250 (≈ 640 µM) | 250 (≈ 640 µM)
O=C(NCCc1ccccc1)Oc1ccc(Cl)cc1 | 500 (≈ 138 µg/mL) | 250 (≈ 68.9 µg/mL) |  | 12 | 125 (≈ 34.5 µg/mL) |  | 250 (≈ 68.9 µg/mL) | 250 (≈ 68.9 µg/mL) | 250 (≈ 68.9 µg/mL) | > 0.5 | 250 (≈ 68.9 µg/mL) | 500 (≈ 138 µg/mL) | > 250 | 125 (≈ 34.5 µg/mL) |  | 125 (≈ 453 µM) | 500 (≈ 138 µg/mL) | > 125 | 31.2 (≈ 113 µM) | 62.5 (≈ 227 µM)
Nc1ccc(C(=O)O)c(O)c1 [AMINOSALICYLIC ACID] | 500 (≈ 76.6 µg/mL) | 62.5 (≈ 9.57 µg/mL) |  | 0 | 32 (≈ 4.9 µg/mL) |  | 32 (≈ 4.9 µg/mL) | 1000 (≈ 153 µg/mL) | 62.5 (≈ 9.57 µg/mL) | 35.8 | 125 (≈ 19.1 µg/mL) | > 1000 |  | 125 (≈ 19.1 µg/mL) |  |  | 125 (≈ 19.1 µg/mL) |  |  | 
